Test results: paper PMC10055046 (bioRxiv, 2023)

How the values were obtained:
OCT2CS = molecular target: T1, OCT2CS (Homo sapiens, UniProt O15244); experiment: [3H]-verapamil accumulation in OCT2CS-injected oocytes; assay type: cell-based; conditions: 100 nM [3H]-verapamil, 30 min
T1 sequence (O15244 1-555): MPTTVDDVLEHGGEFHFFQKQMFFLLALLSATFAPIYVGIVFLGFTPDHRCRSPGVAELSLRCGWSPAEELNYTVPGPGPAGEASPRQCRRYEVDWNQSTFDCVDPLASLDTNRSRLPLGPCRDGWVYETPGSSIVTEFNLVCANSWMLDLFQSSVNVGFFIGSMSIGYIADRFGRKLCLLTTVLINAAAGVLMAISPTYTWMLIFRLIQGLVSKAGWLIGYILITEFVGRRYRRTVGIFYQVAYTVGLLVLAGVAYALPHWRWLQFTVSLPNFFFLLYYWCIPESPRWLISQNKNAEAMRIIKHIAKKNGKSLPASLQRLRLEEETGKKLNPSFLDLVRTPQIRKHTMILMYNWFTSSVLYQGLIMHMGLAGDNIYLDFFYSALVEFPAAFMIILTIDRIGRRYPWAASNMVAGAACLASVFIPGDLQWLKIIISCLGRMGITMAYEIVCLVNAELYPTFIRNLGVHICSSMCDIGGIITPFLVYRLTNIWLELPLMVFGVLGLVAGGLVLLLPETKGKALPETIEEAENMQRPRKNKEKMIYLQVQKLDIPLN

WT hOCT1 = molecular target: T2, WT hOCT1 (Homo sapiens, UniProt O15245); conditions: cited from earlier work
T2 sequence (O15245 1-554): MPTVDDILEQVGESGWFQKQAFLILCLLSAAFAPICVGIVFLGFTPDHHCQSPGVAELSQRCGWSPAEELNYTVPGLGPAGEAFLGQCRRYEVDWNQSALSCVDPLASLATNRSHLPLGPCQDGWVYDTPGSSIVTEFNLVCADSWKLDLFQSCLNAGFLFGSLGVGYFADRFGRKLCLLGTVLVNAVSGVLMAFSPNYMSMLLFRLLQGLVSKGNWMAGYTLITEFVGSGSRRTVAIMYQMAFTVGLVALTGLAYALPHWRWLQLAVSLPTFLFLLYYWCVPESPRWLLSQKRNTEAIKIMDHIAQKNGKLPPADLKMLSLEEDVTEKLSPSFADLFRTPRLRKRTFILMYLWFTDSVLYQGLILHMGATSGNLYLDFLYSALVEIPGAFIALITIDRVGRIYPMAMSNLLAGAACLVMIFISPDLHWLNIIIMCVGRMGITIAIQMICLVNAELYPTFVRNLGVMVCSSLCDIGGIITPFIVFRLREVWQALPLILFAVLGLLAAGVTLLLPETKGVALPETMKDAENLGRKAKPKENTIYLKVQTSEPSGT

COc1ccc(CCN(C)CCCC(C#N)(c2ccc(OC)c(OC)c2)C(C)C)cc1OC (racemic) [(±)-VPM, verapamil]
Uptake of [3H]-verapamil by OCT2CS (OCT2CS; n=3, listed as VPM): does not mediate uptake
Uptake of [3H]-verapamil by OCT2CS (OCT2CS; n=3, listed as verapamil): does not accumulate

CN(C)C(=N)N=C(N)N [metformin]
Kt for metformin, WT hOCT1, previous reports (WT hOCT1): 1 to 5 mM
